Reference: PubChem BioAssay (NCI)
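96-well plates; 48 h exposure; 5 concentrations. Endpoints by linear interpolation between flanking doses. Not reached: highest tested concentration assigned. TGI: concentration producing complete growth inhibition.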

Experiments:
Experiment in all cases: growth of human tumour cells (NCI), 48 h
MDA-N = tested on: MDA-N
HCT-15 colon = tested on: HCT-15 colon
SN12C renal = tested on: SN12C renal
HCT-116 colon = tested on: HCT-116 colon
CCRF-CEM leukemia = tested on: CCRF-CEM leukemia
ACHN renal = tested on: ACHN renal
786-0 renal = tested on: 786-0 renal
SNB-75 CNS = tested on: SNB-75 CNS
SR leukemia = tested on: SR leukemia
NCI/ADR-RES ovarian = tested on: NCI/ADR-RES ovarian
MCF7 breast = tested on: MCF7 breast
UACC-257 melanoma = tested on: UACC-257 melanoma
OVCAR-8 ovarian = tested on: OVCAR-8 ovarian
OVCAR-5 ovarian = tested on: OVCAR-5 ovarian
UACC-62 melanoma = tested on: UACC-62 melanoma
CAKI-1 renal = tested on: CAKI-1 renal
SF-539 CNS = tested on: SF-539 CNS
SK-MEL-28 melanoma = tested on: SK-MEL-28 melanoma
SK-OV-3 ovarian = tested on: SK-OV-3 ovarian
A498 renal = tested on: A498 renal
MOLT-4 leukemia = tested on: MOLT-4 leukemia
BT-549 breast = tested on: BT-549 breast
EKVX NSCLC = tested on: EKVX NSCLC
K-562 leukemia = tested on: K-562 leukemia
HOP-62 NSCLC = tested on: HOP-62 NSCLC
DU-145 prostate = tested on: DU-145 prostate
NCI-H460 lung = tested on: NCI-H460 lung
NCI-H23 lung = tested on: NCI-H23 lung
HT29 colon = tested on: HT29 colon
SK-MEL-2 melanoma = tested on: SK-MEL-2 melanoma
U251 CNS = tested on: U251 CNS
SW-620 colon = tested on: SW-620 colon
LOX IMVI melanoma = tested on: LOX IMVI melanoma
UO-31 renal = tested on: UO-31 renal
PC-3 prostate = tested on: PC-3 prostate
KM12 colon = tested on: KM12 colon
NCI-H226 lung = tested on: NCI-H226 lung
SF-295 CNS = tested on: SF-295 CNS
SNB-19 CNS = tested on: SNB-19 CNS
M14 melanoma = tested on: M14 melanoma
T-47D breast = tested on: T-47D breast
MDA-MB-435 = tested on: MDA-MB-435
SK-MEL-5 melanoma = tested on: SK-MEL-5 melanoma
A549 NSCLC = tested on: A549 NSCLC
IGROV1 ovarian = tested on: IGROV1 ovarian
COLO 205 colon = tested on: COLO 205 colon
HOP-92 NSCLC = tested on: HOP-92 NSCLC
HCC-2998 colon = tested on: HCC-2998 colon
OVCAR-3 ovarian = tested on: OVCAR-3 ovarian
RPMI-8226 leukemia = tested on: RPMI-8226 leukemia
MDA-MB-231 breast = tested on: MDA-MB-231 breast
NCI-H522 lung = tested on: NCI-H522 lung
TK-10 renal = tested on: TK-10 renal
MALME-3M melanoma = tested on: MALME-3M melanoma
RXF 393 renal = tested on: RXF 393 renal
HL-60(TB) leukemia = tested on: HL-60(TB) leukemia
OVCAR-4 ovarian = tested on: OVCAR-4 ovarian
HS 578T breast = tested on: HS 578T breast
SF-268 CNS = tested on: SF-268 CNS

CCOC(=O)c1c(O)cc(=O)[nH]c1N1CCOCC1 gave a TGI (MDA-N) of over 100 µM, a TGI (HCT-15 colon) of over 100 µM and a TGI (SN12C renal) of over 100 µM. The TGI (HCT-116 colon) was over 100 µM, the TGI (CCRF-CEM leukemia) was over 100 µM and the TGI (ACHN renal) was over 100 µM. It also gave a TGI (786-0 renal) of over 100 µM, a TGI (SNB-75 CNS) of over 100 µM and a TGI (SR leukemia) of over 100 µM. It also gave a TGI (NCI/ADR-RES ovarian) of over 100 µM, a TGI (MCF7 breast) of over 100 µM and a TGI (UACC-257 melanoma) of over 100 µM. The TGI (OVCAR-8 ovarian) was over 100 µM, the TGI (OVCAR-5 ovarian) was over 100 µM and the TGI (UACC-62 melanoma) was over 100 µM. The TGI (CAKI-1 renal) was over 100 µM, the TGI (SF-539 CNS) was over 100 µM and the TGI (SK-MEL-28 melanoma) was over 100 µM. The TGI (SK-OV-3 ovarian) was over 100 µM, the TGI (A498 renal) was over 100 µM and the TGI (MOLT-4 leukemia) was over 100 µM. It also gave a TGI (BT-549 breast) of over 100 µM, a TGI (EKVX NSCLC) of over 100 µM and a TGI (K-562 leukemia) of over 100 µM. The TGI (HOP-62 NSCLC) was over 100 µM, the TGI (DU-145 prostate) was over 100 µM and the TGI (NCI-H460 lung) was over 100 µM. For the same compound, the TGI (NCI-H23 lung) was over 100 µM, the TGI (HT29 colon) was over 100 µM and the TGI (SK-MEL-2 melanoma) was over 100 µM. For the same compound, the TGI (U251 CNS) was over 100 µM, the TGI (SW-620 colon) was over 100 µM and the TGI (LOX IMVI melanoma) was over 100 µM. It also gave a TGI (UO-31 renal) of over 100 µM, a TGI (PC-3 prostate) of over 100 µM and a TGI (KM12 colon) of over 100 µM. It also gave a TGI (NCI-H226 lung) of over 100 µM, a TGI (SF-295 CNS) of over 100 µM and a TGI (SNB-19 CNS) of over 100 µM. For the same compound, the TGI (M14 melanoma) was over 100 µM, the TGI (T-47D breast) was over 100 µM and the TGI (MDA-MB-435) was over 100 µM. For the same compound, the TGI (SK-MEL-5 melanoma) was over 100 µM, the TGI (A549 NSCLC) was over 100 µM and the TGI (IGROV1 ovarian) was over 100 µM. For the same compound, the TGI (COLO 205 colon) was over 100 µM, the TGI (HOP-92 NSCLC) was over 100 µM and the TGI (HCC-2998 colon) was over 100 µM. The TGI (OVCAR-3 ovarian) was over 100 µM and the TGI (RPMI-8226 leukemia) was over 100 µM.

Compound COc1c(-c2ccccc2)oc2c(CP(=O)(OC)OC)cccc2c1=O has a TGI (MDA-N) of over 100 µM, a TGI (SN12C renal) of over 100 µM and a TGI (HCT-116 colon) of over 100 µM. For the same compound, the TGI (MDA-MB-231 breast) was over 100 µM, the TGI (CCRF-CEM leukemia) was over 100 µM and the TGI (786-0 renal) was over 100 µM. It also gave a TGI (SR leukemia) of over 100 µM, a TGI (MCF7 breast) of over 100 µM and a TGI (UACC-257 melanoma) of over 100 µM. It also gave a TGI (OVCAR-5 ovarian) of over 100 µM, a TGI (UACC-62 melanoma) of over 100 µM and a TGI (CAKI-1 renal) of 5.11 µM. The TGI (NCI-H522 lung) was over 100 µM, the TGI (SF-539 CNS) was over 100 µM and the TGI (SK-OV-3 ovarian) was over 100 µM. For the same compound, the TGI (A498 renal) was over 100 µM, the TGI (MOLT-4 leukemia) was over 100 µM and the TGI (BT-549 breast) was over 100 µM. The TGI (EKVX NSCLC) was over 100 µM, the TGI (K-562 leukemia) was over 100 µM and the TGI (HOP-62 NSCLC) was over 100 µM. The TGI (DU-145 prostate) was over 100 µM, the TGI (TK-10 renal) was over 100 µM and the TGI (NCI-H23 lung) was over 100 µM. The TGI (SK-MEL-2 melanoma) was over 100 µM, the TGI (U251 CNS) was over 100 µM and the TGI (UO-31 renal) was 41.9 µM. The TGI (PC-3 prostate) was over 100 µM, the TGI (SF-295 CNS) was over 100 µM and the TGI (M14 melanoma) was over 100 µM. The TGI (T-47D breast) was over 100 µM, the TGI (MDA-MB-435) was over 100 µM and the TGI (MALME-3M melanoma) was over 100 µM. The TGI (SK-MEL-5 melanoma) was over 100 µM, the TGI (A549 NSCLC) was over 100 µM and the TGI (IGROV1 ovarian) was over 100 µM. It also gave a TGI (COLO 205 colon) of over 100 µM, a TGI (RXF 393 renal) of over 100 µM and a TGI (HCC-2998 colon) of over 100 µM. It also gave a TGI (OVCAR-3 ovarian) of over 100 µM and a TGI (RPMI-8226 leukemia) of 53.8 µM.

C=CCNC(=O)NNC(O)(C(=O)OCC)C(F)(F)F (configuration not stated) gave a TGI (MDA-N) of over 100 µM, a TGI (HCT-15 colon) of over 100 µM and a TGI (SN12C renal) of over 100 µM. It also gave a TGI (HL-60(TB) leukemia) of over 100 µM, a TGI (HCT-116 colon) of over 100 µM and a TGI (MDA-MB-231 breast) of over 100 µM. For the same compound, the TGI (CCRF-CEM leukemia) was over 100 µM, the TGI (ACHN renal) was over 100 µM and the TGI (OVCAR-4 ovarian) was over 100 µM. For the same compound, the TGI (786-0 renal) was over 100 µM, the TGI (SNB-75 CNS) was over 100 µM and the TGI (SR leukemia) was over 100 µM. For the same compound, the TGI (NCI/ADR-RES ovarian) was over 100 µM, the TGI (MCF7 breast) was over 100 µM and the TGI (UACC-257 melanoma) was over 100 µM. It also gave a TGI (OVCAR-8 ovarian) of over 100 µM, a TGI (OVCAR-5 ovarian) of over 100 µM and a TGI (CAKI-1 renal) of over 100 µM. For the same compound, the TGI (NCI-H522 lung) was over 100 µM, the TGI (SF-539 CNS) was over 100 µM and the TGI (SK-MEL-28 melanoma) was over 100 µM. It also gave a TGI (SK-OV-3 ovarian) of over 100 µM, a TGI (A498 renal) of over 100 µM and a TGI (MOLT-4 leukemia) of over 100 µM. It also gave a TGI (EKVX NSCLC) of over 100 µM, a TGI (K-562 leukemia) of over 100 µM and a TGI (HOP-62 NSCLC) of over 100 µM. The TGI (DU-145 prostate) was over 100 µM, the TGI (TK-10 renal) was over 100 µM and the TGI (NCI-H460 lung) was over 100 µM. The TGI (NCI-H23 lung) was over 100 µM, the TGI (HT29 colon) was over 100 µM and the TGI (SK-MEL-2 melanoma) was over 100 µM. For the same compound, the TGI (U251 CNS) was over 100 µM, the TGI (SW-620 colon) was over 100 µM and the TGI (LOX IMVI melanoma) was over 100 µM. It also gave a TGI (UO-31 renal) of over 100 µM, a TGI (PC-3 prostate) of over 100 µM and a TGI (KM12 colon) of over 100 µM. It also gave a TGI (NCI-H226 lung) of over 100 µM, a TGI (SNB-19 CNS) of over 100 µM and a TGI (M14 melanoma) of over 100 µM. It also gave a TGI (T-47D breast) of over 100 µM, a TGI (MDA-MB-435) of over 100 µM and a TGI (MALME-3M melanoma) of over 100 µM. The TGI (SK-MEL-5 melanoma) was over 100 µM, the TGI (A549 NSCLC) was over 100 µM and the TGI (IGROV1 ovarian) was over 100 µM. For the same compound, the TGI (COLO 205 colon) was over 100 µM, the TGI (HS 578T breast) was over 100 µM and the TGI (SF-268 CNS) was over 100 µM. The TGI (HOP-92 NSCLC) was over 100 µM, the TGI (RXF 393 renal) was over 100 µM and the TGI (HCC-2998 colon) was over 100 µM. For the same compound, the TGI (OVCAR-3 ovarian) was over 100 µM and the TGI (RPMI-8226 leukemia) was over 100 µM.
